Data set [1] can be described thus: Plasma precipitation screening assay. Details: species or system rat. As to conditions: minimal effect concentration, lowest concentration giving absorbance difference OD362≥0.05, rat plasma 1:1, 10 minutes room temperature. The protocol:
An aliquot (10 μL) of compound solubilized in physiological buffer or the formulation used for its parenteral administration in vivo, and of various dilutions thereof in phosphate-buffered saline (PBS), is mixed 1:1 with rat plasma. After 10 minutes incubation at room temperature the UV-absorption of the mixtures is measured and compared to absorption of blank plasma or plasma with vehicle solution. A significant (often concentration dependent) increase of absorption is indicative of precipitation.
Whole blood is obtained from WISTAR rats (Hanbrl:Wist SPF) under terminal anaesthesia after intraperitoneal injection of a pentobarbital solution (from animals euthanized for collection of tissue for other experimental purposes). Blood is collected in 1.2 mL of Heparin S-Monovette tubes (Sarstedt) for the preparation of heparin plasma.
The tubes are then centrifuged for 5 min at 5200 g at room temperature to isolate the plasma supernatant. The plasma is used in the assay within 48 h of collection (storage at 4° C.).
Test compounds are received as powder or formulated. When obtained as powder, they are solubilized in 0.9% aq. sodium chloride solution in order to get the highest indicated concentration to be tested. The solubility is visually checked and the solutions are filtered using 0.45 PVDF hydrophilic filters (Durapore®, Darmstadt, Germany), to remove possible solid impurities. pH of this initial solution might be measured in the filtered stock solutions, before proceeding to prepare a compound dilution series in PBS (1:1-dilution steps).
The assay is conducted in 384-well plates. 10 μL of rat plasma is added to 10 μL of the various compound solutions. The assay is performed in duplicate. 10 μL of vehicle (0.9% aq. sodium chloride solution, PBS) added to the plasma is used as a negative control. The absorption is measured at 362 nm.
Raw data obtained are absorbance data. The difference between absorbance of the sample and mean absorbance of vehicle is calculated. The minimal effect concentration (MEC) is defined as the lowest concentration giving an absorbance difference, OD362≥0.05.

The subject of the next data set is A. baumannii ATCC 17978. Put plainly: 50% growth inhibitory concentration (IC50) determination, antimicrobial susceptibility testing. Type of data set: cell-based. As to conditions: Acinetobacter baumannii. The protocol: The in vitro antimicrobial activity of the compounds was alternatively determined according to the following procedure:
The assay used a 10-points Iso-Sensitest broth medium to measure quantitatively the in vitro activity of the compounds against A. baumannii ATCC 17978.
Stock compounds in DMSO were serially twofold diluted (e.g. range from 50 to 0.097 μM or from 10 to 0.020 μM final concentration) in 384 wells microtiter plates and inoculated with 49 μl the bacterial suspension in Iso-Sensitest medium to have a final cell concentration of ˜5×10^(5)CFU/ml in a final volume/well of 50 μl/well. Microtiter plates were incubated at 35±2° C.
Bacterial cell growth was determined with the measurement of optical density at X=600 nm each 20 minutes over a time course of 16h.
Growth inhibition was calculated during the logarithmic growth of the bacterial cells with determination of the concentration inhibiting 50% (IC50) and 90% (IC90) of the growth.
Table 1 provides the 50% growth inhibitory concentrations (IC50) in micromoles per liter of the compounds of present invention obtained against the A. baumannii strain ATCC17978.

Setting [2] is: 50% growth inhibition, A. baumannii strain ATCC17978, Iso-Sensitest medium, read-out: IC50 ATCC17978.

Where two headings read alike, the source gives them in different places.

Consider 14 compounds from patent US11819532B2, “Peptide macrocycles against Acinetobacter baumannii” (Hoffmann-La Roche Inc., priority 2018, dated 2023).

Turning to `CN1C(=O)[C@H](CCCCN)NC(=O)[C@H](CCCN)NCc2cccnc2Sc2c(Cl)ccc(Cl)c2CNC(=O)[C@@H]1Cc1c[nH]c2ccccc12` [Example 38 of WO2017/072062, reference compound], the “Plasma precipitation MEC” value in data set [1] amounted to 52 µmol/L. Further, the IC50 with A. baumannii ATCC 17978 (ATCC17978, read-out: IC50 ATCC17978) was determined as 42 nM.
As to `CN1C(=O)[C@H](CCC(F)(F)CN)NC(=O)[C@H](CCCN)NCc2cccnc2Sc2c(Cl)ccc(-c3ccc(C(=O)O)cc3)c2CNC(=O)[C@@H]1Cc1c[nH]c2ccccc12` [Example 4.00, 4-[(11S,14S,17S)-14-(4-Amino-3,3-difluoro-butyl)-11-(3-aminopropyl)-25-chloro-17-(1H-indol-3-ylmethyl)-16-methyl-12,15,18-trioxo-2-thia-4,10,13,16,19-pentazatricyclo[19.4.0.03,8]pentacosa-1(21), 3,5,7,22,24-hexaen-22-yl]benzoic Acid], the IC50 in the data set on A. baumannii ATCC 17978 (setting [2]) is 19 nM.
As for `CN1C(=O)[C@H](CCCCN)NC(=O)[C@H](CCN)NCc2cccnc2Sc2c(Cl)ccc(-c3ccc(C(=O)O)cc3)c2CNC(=O)[C@@H]1Cc1c[nH]c2ccccc12` [Example 15.00, 4-[(1 S,14S,7S)-14-(4-Aminobutyl)-11-(2-aminoethyl)-25-chloro-17-(1H-indol-3-ylmethyl)-16-methyl-12,15,18-trioxo-2-thia-4,10,13,16,19-pentazatricyclo[19.4.0.03,8]pentacosa-1(25), 3(8), 4,6,21,23-hexaen-22-yl]benzoic Acid], in the data set on A. baumannii ATCC 17978 (setting [2]), the IC50 stood at 20 nM.
With `CN1C(=O)[C@H](CCCN)NC(=O)[C@H](CCN)NCc2cccnc2Sc2c(Cl)ccc(-c3ccc(C(=O)O)cc3)c2CNC(=O)[C@@H]1Cc1c[nH]c2ccccc12` [Example 16.00, 4-[(11S,14S,17S)-11-(2-Aminoethyl)-14-(3-aminopropyl)-25-chloro-17-(1H-indol-3-ylmethyl)-16-methyl-12,15,18-trioxo-2-thia-4,10,13,16,19-pentazatricyclo[19.4.0.03,8]pentacosa-1(25), 3(8), 4,6,21,23-hexaen-22-yl]benzoic Acid], the IC50 in the data set on A. baumannii ATCC 17978 (setting [2]) was determined as 20 nM.
On the same count and under the same terms, the value for `CN1C(=O)[C@H](CCCN)NC(=O)[C@H](CCCN)NCc2cccnc2Sc2cccc(-c3ccc(C(=O)O)cc3)c2CNC(=O)[C@@H]1Cc1c[nH]c2ccccc12` [Example 17.00, 4-[(1 S,14S,17S)-11,14-bis(3-Aminopropyl)-17-(1H-indol-3-ylmethyl)-16-methyl-12,15,18-trioxo-2-thia-4,10,13,16,19-pentazatricyclo[19.4.0.03,8]pentacosa-1(25), 3 (8),4,6,21,23-hexaen-22-yl]benzoic Acid] was 75 nM; that for `CN1C(=O)[C@H](CCCCN)NC(=O)[C@H](CCCN)NCc2cccnc2Sc2c(Cl)ccc(-c3ccc(C(=O)O)nc3)c2CNC(=O)[C@@H]1Cc1c[nH]c2ccccc12` [Example 2.02, 5-[(11S,14S,17S)-14-(4-aminobutyl)-11-(3-aminopropyl)-25-chloro-17-(1H-indo1-3-ylmethyl)-16-methyl-12,15,18-trioxo-2-thia-4,10,13,16,19-pentazatricyclo[19.4.0.03,8]pentacosa-1(25),3,5,7,21,23-hexaen-22-yl]pyridine-2-carboxylic acid] was 29 nM.
Still for that read-out and setting: the value for `CN1C(=O)[C@H](CCCCN)NC(=O)[C@H](CCC(N)=O)NCc2cccnc2Sc2c(Cl)ccc(-c3ccc(C(=O)O)cc3)c2CNC(=O)[C@@H]1Cc1c[nH]c2ccccc12` [Example 5.00, 4-[(11S,14S,17S)-14-(4-aminobutyl)-1-(3-amino-3-oxo-propyl)-25-chloro-17-(1H-indol-3-ylmethyl)-16-methyl-12,15,18-trioxo-2-thia-4,10,13,16,19-pentazatricyclo[19.4.0.03,8]pentacosa-1(21), 3,5,7,22,24-hexaen-22-yl]benzoic Acid] was 67 nM; that for `CN1C(=O)[C@H](CCCCN)NC(=O)[C@H](CCCN)NCc2cccnc2Sc2c(Cl)ccc(-c3ccc(C(=O)O)c(O)c3)c2CNC(=O)[C@@H]1Cc1c[nH]c2ccccc12` [Example 3.00, 4-[(1 S,14S,17S)-14-(4-Aminobutyl)-1-(3-aminopropyl)-25-chloro-17-(1H-indol-3-ylmethyl)-16-methyl-12,15,18-trioxo-2-thia-4,10,13,16,19-pentazatricyclo[19.4.0.03,8]pentacosa-1(21), 3(8), 4,6,22,24-hexaen-22-yl]-2-hydroxy-benzoic Acid] was 39 nM.
On the same count and under the same terms, the value for `CN1C(=O)[C@H](CCCCN)NC(=O)[C@H](CCCN)NCc2cccnc2Sc2c(F)ccc(-c3ccn(/C=C/C(=O)O)c(=O)c3)c2CNC(=O)[C@@H]1Cc1c[nH]c2ccccc12` [Example 9.02, (E)-3-[4-[(11S,14S,17S)-14-(4-Aminobutyl)-11-(3-aminopropyl)-25-fluoro-17-(1H-indol-3-ylmethyl)-16-methyl-12,15,18-trioxo-2-thia-4,10,13,16,19-pentazatricyclo[19.4.0.03,8]pentacosa-1(25),3(8),4,6,21,23-hexaen-22-yl]-2-oxo-1-pyridyl]prop-2-enoic acid] was 88 nM; that for `CN1C(=O)[C@H](CCCCN)NC(=O)[C@H](CCCN)NCc2nccnc2Sc2c(Cl)ccc(-c3ccc(C(=O)O)cc3)c2CNC(=O)[C@@H]1Cc1c[nH]c2ccccc12` [Example 8.00, 4-[(11S,14S,17S)-14-(4-Aminobutyl)-11-(3-aminopropyl)-25-chloro-17-(1H-indol-3-ylmethyl)-16-methyl-12,15,18-trioxo-2-thia-4,7,10,13,16,19-hexazatricyclo[19.4.0.03,8]pentacosa-1(21), 3,5,7,22,24-hexaen-22-yl]benzoic Acid] was 20 nM; that for `Cc1[nH]c2ccccc2c1C[C@H]1C(=O)NCc2c(-c3ccc(C(=O)O)cc3)ccc(Cl)c2Sc2ncccc2CN[C@@H](CCCN)C(=O)N[C@@H](CCCCN)C(=O)N1C` [Example 7.00, 4-[(11S,14S,17S)-14-(4-Aminobutyl)-11-(3-aminopropyl)-25-chloro-16-methyl-17-[(2-methyl-1H-indol-3-yl)methyl]-12,15,18-trioxo-2-thia-4,10,13,16,19-pentazatricyclo[19.4.0.03,8]pentacosa-1(25), 3,5,7,21,23-hexaen-22-yl]benzoic Acid] was 28 nM.
Consider `CN1C(=O)[C@H](CCCN)NC(=O)[C@H](CCCN)NCc2cccnc2Sc2c(F)ccc(-c3ccc(C(=O)O)cc3)c2CNC(=O)[C@@H]1Cc1c[nH]c2ccccc12` [Example 14.00, 4-[(1 S,14S,17S)-11,14-bis(3-Aminopropyl)-25-fluoro-17-(H-indol-3-ylmethyl)-16-methyl-12,15,18-trioxo-2-thia-4,10,13,16,19-pentazatricyclo[19.4.0.03,8]pentacosa-1(25), 3(8), 4,6,21,23-hexaen-22-yl]benzoic Acid], for which the IC50 with A. baumannii ATCC 17978 (setting [2]) amounted to 21 nM.
For `CN1C(=O)[C@H](CCCN)NC(=O)[C@H](CCCN)NCc2cccnc2Sc2c(Cl)ccc(-c3ccc(C(=O)O)cc3)c2CNC(=O)[C@@H]1Cc1c[nH]c2ccccc12` [Example 12.00, 4-[(11S,14S,17S)-11,14-bis(3-Aminopropyl)-25-chloro-17-(1H-indol-3-ylmethyl)-16-methyl-12,15,18-trioxo-2-thia-4,10,13,16,19-pentazatricyclo[19.4.0.03,8]pentacosa-1(21), 3,5,7,22,24-hexaen-22-yl]benzoic Acid], the IC50 in the data set on A. baumannii ATCC 17978 (setting [2]) was found to be 19 nM.
On to `CN1C(=O)[C@H](CCN)NC(=O)[C@H](CCCN)NCc2cccnc2Sc2c(Cl)ccc(-c3ccc(C(=O)O)cc3)c2CNC(=O)[C@@H]1Cc1c[nH]c2ccccc12` [Example 13.00, 4-[(11S,14S,17S)-14-(2-Aminoethyl)-11-(3-aminopropyl)-25-chloro-17-(1H-indol-3-ylmethyl)-16-methyl-12,15,18-trioxo-2-thia-4,10,13,16,19-pentazatricyclo[19.4.0.03,8]pentacosa-1(25), 3(8), 4,6,21,23-hexaen-22-yl]benzoic Acid], for which the IC50 with A. baumannii ATCC 17978 (setting [2]) was 20 nM.
